This note sets out measurements from patent US4508663A, “Process for preparing thiosulfenamide derivatives of N-phosphonomethylglycinonitriles” (Monsanto Company, priority 1983, dated 1985).

What all share (assay): post-emergence herbicidal activity, greenhouse
Common to all, as to type: in vivo

The test system of assay [1] is Quackgrass. Particulars: Table I, 4 WAT, 11.2 kg/h. An excerpt: (§1) A good grade of top soil is placed in aluminum pans having holes in the bottom and compacted to a depth of 0.95 to 1.27 cm. from the top of the pan. A predetermined number of seeds of each of several dicotyledonous and monocotyledonous annual plant species and/or vegetative propagules for the perennial plant species are placed on the soil and pressed into the soil surface. The seeds and/or vegetative propagules are covered with soil and leveled. The pans are then placed on a sand bench in the greenhouse and watered from below as needed. After the plants reach the desired age (two to three weeks), each pan except for the control pans is removed individually to a spraying chamber and sprayed by means of an atomizer operating at a positive air pressure of approximately 1.46 kg/cm^2 absolute. The atomizer contains 6 ml. of a solution or suspension of the chemical. In that 6 ml., is an amount of a cyclohexanone emulsifying agent mixture to give a spray solution or suspension which contains about 0.4% by weight of the emulsifier. The spray solution or suspension contains a sufficient amount of the candidate chemical in order to give application rates corresponding to those set forth in the tables. The spray solution is prepared by taking an aliquot of a 1.0% by weight stock solution or suspension of the candidate chemical in an organic solvent such as acetone or tetrahydrofuran or in water. The emulsifying agent employed is a mixture comprising 35 weight percent butylamine dodecylbenzene sulfonate and 65 weight percent of a tall oil ethylene oxide condensate having about 11 moles of ethylene oxide per mole of tall oil. The pans are returned to the greenhouse and watered as before and the injury to the plants as compared to the control is observed at approximately two and four weeks as indicated in the tables under WAT and the results recorded. In some instances, the two-week observations are omitted.
(§2) The post-emergence herbicidal activity index used in Table I is as follows: […]

Assay [2] deals with Morningglory. Particulars: Table I, 4 WAT.
From the text: as §1, §2

In assay [3] the test system is Cocklebur. Particulars: Table I, 4 WAT.
From the text: as §1, §2

The test system of assay [4] is Velvetleaf. The settings on record: Table I, 4 WAT.
From the text: as §1, §2

Assay [5] has as its system Lambsquarters. Particulars: Table I, 4 WAT.
From the text: as §1, §2

The subject of assay [6] is Johnsongrass. The settings on record: Table I, 4 WAT.
From the text: as §1, §2

The test system of assay [7] is Smartweed. Particulars: Table I, 4 WAT.
From the text: as §1, §2

For assay [8], the system named is Yellow Nutsedge. The settings on record: Table I, 4 WAT.
From the text: as §1, §2

In assay [9] the test system is Barnyardgrass. Particulars: Table I, 4 WAT.
From the text: as §1, §2

Assay [10] has as its system Downy Brome. Particulars: Table I, 4 WAT.
From the text: as §1, §2

Consider `N#CCN(CP(=O)(Oc1ccccc1)Oc1ccccc1)SSCc1cccc(C(F)(F)F)c1` [VIII, Phosphonic acid, [[(cyanomethyl)[[[3-(trifluoromethyl)phenyl]methyl]dithio]amino]methyl]-, diphenyl ester], for which the “post-emergence herbicidal activity index” value in assay [1] is 0 (0-24% control); in [2] (5.6 kg/h) it was 1 (25-49% control); in assay [2] (11.2 kg/h), 1 (25-49% control); in [3] (5.6 kg/h), 1 (25-49% control); in assay [3] (11.2 kg/h), 2 (50-74% control); in assay [4] (5.6 kg/h), 1 (25-49% control). Besides, the “post-emergence herbicidal activity index” value in [4] (11.2 kg/h) is recorded as 1 (25-49% control); in assay [5] (5.6 kg/h), 4 (100% control); in assay [5] (11.2 kg/h) it was 4 (100% control); in assay [6] (5.6 kg/h) it was 3 (75-99% control); in assay [6] (11.2 kg/h), 3 (75-99% control); in assay [7] (5.6 kg/h), 0 (0-24% control). Also, the “post-emergence herbicidal activity index” value was 0 (0-24% control) in assay [7] (11.2 kg/h); 2 (50-74% control) in assay [8] (5.6 kg/h); 2 (50-74% control) in assay [8] (11.2 kg/h); 2 (50-74% control) in assay [9] (5.6 kg/h); 2 (50-74% control) in assay [9] (11.2 kg/h); 1 (25-49% control) in [10] (5.6 kg/h). For the same molecule, the “post-emergence herbicidal activity index” value in assay [10] (11.2 kg/h) is recorded as 2 (50-74% control).
